pIC50: −log10 of the molar value.

The target of this assay is hTDO2 in human glioblastoma A172 cells (Homo sapiens (Human), UniProt P48775). Put plainly: Cellular assay for TDO2 activity determination in A172 cells. Type of assay: cell-based. The conditions noted are these: overnight incubation, kynurenine absorbance at 480 nm. As for the experimental part: The compounds of formula I inhibit the activity of human TDO2 in cells that constitutively express TDO2, such as A172 cells. A172 is a cell line derived from human brain glioblastoma cells. The cells are available from the American Type Culture Collection (ATCC®) as CRL-1620™.
Chain of hTDO2 in human glioblastoma A172 cells (P48775 whole entry): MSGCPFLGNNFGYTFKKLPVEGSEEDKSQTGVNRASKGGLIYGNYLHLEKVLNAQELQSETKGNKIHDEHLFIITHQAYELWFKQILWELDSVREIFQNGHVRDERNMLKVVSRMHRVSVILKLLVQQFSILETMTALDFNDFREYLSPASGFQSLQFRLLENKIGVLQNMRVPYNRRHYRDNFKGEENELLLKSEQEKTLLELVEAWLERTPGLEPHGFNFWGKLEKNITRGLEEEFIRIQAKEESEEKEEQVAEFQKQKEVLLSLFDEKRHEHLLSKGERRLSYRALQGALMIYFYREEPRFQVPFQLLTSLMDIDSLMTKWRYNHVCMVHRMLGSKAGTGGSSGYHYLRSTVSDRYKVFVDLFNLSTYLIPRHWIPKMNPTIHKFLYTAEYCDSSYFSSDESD
The assay (adapted from Pilotte L et al., Proc Natl Acad Sci USA, 2012, 109(7), 2497-502) was performed in 96-well flat bottom plates seeded with human glioblastoma A172 cells, naturally expressing hTDO2 (prepared as described in Tilman et al., Mol Cancer, 2007, 17(6), 80), at a concentration of 1.25×10^4 cells/well in a final volume of 200 μL. To determine TDO, the cells were incubated overnight at 37° C. at 5% CO2 in IMDM (Invitrogen) supplemented with 2% FBS and 2% penicillin/streptomycin in the presence of the compounds of the present invention, at different concentrations.
The plates were then centrifuged 5 min at 1000 rpm, and 100 μL of the supernatant were collected in a conical plate, 30 μL of TCA 30% were added and a further centrifuged at 3000×g for 10 minutes. 100 μL of the supernatant were collected in a flat bottomed plate and 100 μL of 2% (w/v) 4-(dimethylamino)-benzaldehyde in acetic acid and incubated for 5 min at room temperature. Kynurenine concentrations were determined by measuring the absorbance at 480 nm. A standard curve was made with pure kynurenine. The TDO activity was measured as described above using ten serial concentrations of the compounds of the present invention. Data were fitted using the Prism™ software (GraphPad Software, Inc.) using standard parameters.
For the compound `O=S(=O)(c1ccc(-c2c[nH]c3cc(F)ccc23)cc1)N1CC(CO)C1` [Example 63, (1-((4-(6-fluoro-1H-indol-3-yl)phenyl)sulfonyl)-azetidin-3-yl)methanol], the pIC50 was 6.77.
Under `O=S(=O)(N[C@H]1CCOC1)c1ccc(-c2c[nH]c3cc(F)ccc23)cc1` [Example 64, (S)-4-(6-fluoro-1H-indol-3-yl)-N-(tetrahydrofuran-3-yl)-benzenesulfonamide] stands 6.57.
The compound `O=S(=O)(c1ccc(-c2c[nH]c3cc(F)ccc23)cc1)N1CC(O)C1` [Example 65, 1-((4-(6-fluoro-1H-indol-3-yl)phenyl)sulfonyl)azetidin-3-ol] gave a pIC50 of 6.80.
Regarding `O=S(=O)(c1ccc(-c2c[nH]c3cc(F)ccc23)cc1)N1C[C@H](O)[C@@H](O)C1` [Example 66, (3S,4S) 1-[4-(6-Fluoro-1H-indol-3-yl)-benzenesulfonyl]-pyrrolidine-3,4-diol], the pIC50 is 7.08.
Under `NC(=O)C1CN(S(=O)(=O)c2ccc(-c3c[nH]c4cc(F)ccc34)cc2)C1` [Example 67, 1-((4-(6-fluoro-1H-indol-3-yl)phenyl)sulfonyl)azetidine-3-carboxamide] stands 6.74; under `O=S(=O)(NC1CNC1)c1ccc(-c2c[nH]c3cc(F)ccc23)cc1` [Example 68, N-(azetidin-3-yl)-4-(6-fluoro-1H-indol-3-yl)benzenesulfonamide], 6.85; under `NCCNS(=O)(=O)c1cc(O)cc(-c2c[nH]c3cc(F)ccc23)c1` [Example 69, N-(2-aminoethyl)-3-(6-fluoro-1H-indol-3-yl)-5-hydroxy-benzenesulfonamide], 6.48.
Regarding `CC(=O)n1cc(-c2ccc(S(=O)(=O)N3CCNCC3)cc2)c2ccc(F)cc21` [Example 70, 1-(6-fluoro-3-(4-(piperazin-1-ylsulfonyl)phenyl)-1H-indol-1-yl)ethanone], the pIC50 was 6.24.
Consider `Cc1cc(-c2c[nH]c3cc(F)ccc23)cc(C)c1S(=O)(=O)N1CCNCC1` [Example 71, 3-(3,5-dimethyl-4-(piperazin-1-ylsulfonyl)phenyl)-6-fluoro-1H-indole], for which the pIC50 was 6.35. This pIC50 and that of the compound before are within 0.2 log units of each other.
Under `O=S(=O)(NCCc1c[nH]nn1)c1ccc(-c2c[nH]c3cc(F)ccc23)cc1` [Example 72, N-(2-(1H-1,2,3-triazol-4-yl)ethyl)-4-(6-fluoro-1H-indol-3-yl)benzenesulfonamide] stands 6.52; under `O=S(=O)(NCCc1ncc[nH]1)c1ccc(-c2c[nH]c3cc(F)ccc23)cc1` [Example 73, N-(2-(1H-imidazol-2-yl)ethyl)-4-(6-fluoro-1H-indol-3-yl)benzenesulfonamide], 6.82; under `O=S(=O)(c1ccc(-c2c[nH]c3cc(F)ccc23)cc1)N1C[C@@H](O)[C@H](O)C1` [Example 74, (3R,4R)-1-((4-(6-fluoro-1H-indol-3-yl)phenyl)-sulfonyl)pyrrolidine-3,4-diol], 7.02.
Under `O=S(=O)(c1c(F)cc(-c2c[nH]c3cc(F)ccc23)cc1F)N1CCNCC1` [Example 75, 3-(3,5-difluoro-4-(piperazin-1-ylsulfonyl)phenyl)-6-fluoro-1H-indole] stands 6.42.
Under `NC(=O)n1cc(-c2ccc(S(=O)(=O)N3CCNCC3)cc2)c2ccc(F)cc21` [Example 78, 6-fluoro-3-(4-(piperazin-1-ylsulfonyl)phenyl)-1H-indole-1-carboxamide] stands 4.74; under `N[C@@H]1CN(S(=O)(=O)c2ccc(-c3c[nH]c4cc(F)ccc34)cc2)C[C@H]1F` [Example 82, (3R,4R)-4-fluoro-1-{[4-(6-fluoro-1H-indol-3-yl)phenyl]sulfonyl}pyrrolidin-3-amine], 6.60.
`N[C@@H]1CN(S(=O)(=O)c2ccc(-c3c[nH]c4cc(F)ccc34)cc2)C[C@@H]1F` [Example 83, (−)-(cis)-4-fluoro-1-((4-(6-fluoro-1H-indol-3-yl)-phenyl)sulfonyl)-pyrrolidin-3-amine] gave a negative-log IC50 (pIC50) of 6.96.
Under `CC(NS(=O)(=O)c1ccc(-c2c[nH]c3cc(F)ccc23)cc1)c1nncn1C` (stereo not shown) [Example 85, 4-(6-fluoro-1H-indol-3-yl)-N-[1-(4-methyl-4H-1,2,4-triazol-3-yl)ethyl]benzenesulfonamide] stands 6.41.
Under `Cc1nnc(CNS(=O)(=O)c2ccc(-c3c[nH]c4cc(F)ccc34)cc2)o1` [Example 89, 4-(6-fluoro-1H-indol-3-yl)-N-((5-methyl-1,3,4-oxadiazol-2-yl)methyl) benzenesulfonamide] stands 6.70; under `Cn1nccc1NS(=O)(=O)c1ccc(-c2c[nH]c3cc(F)ccc23)cc1` [Example 91, 4-(6-fluoro-1H-indol-3-yl)-N-(1-methyl-1H-pyrazol-5-yl)benzenesulfonamide], 5.74; under `Cn1cnnc1CNS(=O)(=O)c1ccc(-c2c[nH]c3cc(F)ccc23)cc1` [Example 92, 4-(6-fluoro-1H-indol-3-yl)-N-[(4-methyl-4H-1,2,4-triazol-3-yl)methyl]-benzenesulfonamide], 6.25.
Under `CNS(=O)(=O)CCN(C)S(=O)(=O)c1ccc(-c2c[nH]c3cc(F)ccc23)cc1` [Example 100, 4-(6-fluoro-1H-indol-3-yl)-N-methyl-N-[2-(methylsulfamoyl)ethyl]benzenesulfonamide] stands 7.00; under `C[C@@H](CO)NS(=O)(=O)c1ccc(-c2c[nH]c3cc(F)ccc23)cc1` [Example 101, (−)-(6-fluoro-1H-indol-3-yl)-N-[(2S)-1-hydroxypropan-2-yl]benzenesulfonamide], 7.03.
For the compound `O=C(CCNS(=O)(=O)c1ccc(-c2c[nH]c3cc(F)ccc23)cc1)N1CCNCC1` [Example 102, 4-(6-fluoro-1H-indol-3-yl)-N-(3-oxo-3-(piperazin-1-yl)propyl) benzenesulfonamide], the pIC50 was 6.59.
As to `CN1CCN(C(=O)CCNS(=O)(=O)c2ccc(-c3c[nH]c4cc(F)ccc34)cc2)CC1` [Example 103, 4-(6-fluoro-1H-indol-3-yl)-N-(3-(4-methylpiperazin-1-yl)-3-oxopropyl) benzenesulfonamide], the pIC50 was 6.59.
Under `O=C(CCNS(=O)(=O)c1ccc(-c2c[nH]c3cc(F)ccc23)cc1)N[C@H]1CCOC1` [Example 104, (−)-(S)-3-(4-(6-fluoro-1H-indol-3-yl)phenylsulfonamido)-N-(tetrahydrofuran-3-yl)propanamide] stands 6.62.
Turning to `N[C@H]1CN(C(=O)CCNS(=O)(=O)c2ccc(-c3c[nH]c4cc(F)ccc34)cc2)C[C@@H]1F` [Example 105, (−)-N-(3-((3S,4S)-3-amino-4-fluoropyrrolidin-1-yl)-3-oxopropyl)-4-(6-fluoro-1H-indol-3-yl)benzenesulfonamide], the negative-log IC50 (pIC50) was 6.66.
Under `O=C(CCNS(=O)(=O)c1ccc(-c2c[nH]c3cc(F)ccc23)cc1)N1CCOCC1` [Example 106, 4-(6-fluoro-1H-indol-3-yl)-N-(3-morpholino-3-oxopropyl)-benzenesulfonamide] stands 6.57; under `O=C(CCNS(=O)(=O)c1ccc(-c2c[nH]c3cc(F)ccc23)cc1)N[C@@H]1CCOC1` [Example 107, (+)-(R)-3-(4-(6-fluoro-1H-indol-3-yl)phenylsulfonamido)-N-(tetrahydrofuran-3-yl)propanamide], 6.80.
Under `O=C(NCCNS(=O)(=O)c1ccc(-c2c[nH]c3cc(F)ccc23)cc1)N1CCOCC1` [Example 108, N-(2-(4-(6-fluoro-1H-indol-3-yl)phenylsulfonamido)ethyl)-morpholine 4-carboxamide] stands 6.77; under `O=C(NCCNS(=O)(=O)c1ccc(-c2c[nH]c3cc(F)ccc23)cc1)N1CCNCC1` [Example 109, N-(2-(4-(6-fluoro-1H-indol-3-yl)phenylsulfonamido)ethyl) piperazine-1-carboxamide], 6.00; under `CN1CCN(C(=O)NCCNS(=O)(=O)c2ccc(-c3c[nH]c4cc(F)ccc34)cc2)CC1` [Example 110, N-(2-(4-(6-fluoro-1H-indol-3-yl)phenylsulfonamido)ethyl)-4-methylpiperazine-1-carboxamide], 6.74.
As to `C[C@@H](O)[C@H](C)N(CCO)S(=O)(=O)c1ccc(-c2c[nH]c3cc(F)ccc23)cc1` [Example 111, 4-(6-fluoro-1H-indol-3-yl)-N-((2S,3R)-3-hydroxybutan-2-yl)-N-(2-hydroxyethyl)benzene sulfonamide], the pIC50 was 6.84.
Under `O=S(=O)(c1ccc(-c2c[nH]c3cc(F)ccc23)cc1)N1CCOC[C@@H]1CO` [Example 112, (S)-(4-((4-(6-fluoro-1H-indol-3-yl)phenyl)sulfonyl)morpholin-3-yl)methanol] stands 6.94; under `Cn1nccc1C1(O)CCN(S(=O)(=O)c2ccc(-c3c[nH]c4cc(F)ccc34)cc2)C1` (stereo not shown) [Example 113, 1-((4-(6-fluoro-1H-indol-3-yl)phenyl)sulfonyl)-3-(1-methyl-1H-pyrazol-5-yl)pyrrolidin-3-ol], 4.04.

For orientation: pIC50 means −log10 of the IC50, conventionally taken in molar units. Read a high pIC50 as a low IC50.

Values taken from patent US10544095B2 (Pfizer Inc., priority 2015, dated 2020).
